According to ChEMBL document CHEMBL1154064, “Synthesis and DNA cleavage activity of 2-hydrazinyl-1,4,5,6-tetrahydropyrimidine containing hydroxy group” (2009):
Active and inactive are the calls of the source. No cut-off for these calls is given here.

Assays:
Nucleic Acid [1] = test: Binding affinity to Escherichia coli pUC19 DNA assessed as form 2 DNA level at 0.463 mM after 31.48 hrs by agarose gel electrophoresis; assay type: nucleic-acid assay
Nucleic Acid [2] = test: Binding affinity to supercoiled Escherichia cloli pUC19 DNA assessed as formation of nicked circular DNA at 1.10 mM at pH 6.0 to 8.5 for 24 hrs by agarose gel electrophoresis; assay type: nucleic-acid assay; details: Escherichia coli
Nucleic Acid [3] = test: Binding affinity to Escherichia coli pUC19 DNA assessed as form 1 DNA level at 0.320 mM after 25.35 hrs by agarose gel electrophoresis; assay type: nucleic-acid assay
Nucleic Acid [4] = test: Binding affinity to Escherichia coli pUC19 DNA assessed as form 2 DNA level at 0.175 mM after 9.07 hrs by agarose gel electrophoresis; assay type: nucleic-acid assay
Nucleic Acid [5] = test: Binding affinity to Escherichia coli pUC19 DNA assessed as form 2 DNA level at 0.130 mM after 5.42 hrs by agarose gel electrophoresis; assay type: nucleic-acid assay
Nucleic Acid [6] = test: Binding affinity to supercoiled Escherichia coli pUC19 DNA assessed as formation of nicked circular DNA at 1.10 mM at pH 6.0 for 24 hrs in presence of tertiary butyl hydroxide by agarose gel electrophoresis; assay type: nucleic-acid assay
Nucleic Acid [7] = test: Binding affinity to Escherichia coli pUC19 DNA assessed as form 2 DNA level at 0.349 mM after 28.18 hrs by agarose gel electrophoresis; assay type: nucleic-acid assay
HeLa [8] = test: Growth inhibition of human HeLa cells at 10 uM after 72 hrs by MTT assay; assay type: functional; set-up: scale not given: the % may be the effect or the level left
Nucleic Acid [9] = test: Binding affinity to Escherichia coli pUC19 DNA assessed as form 2 DNA level at 0.175 mM after 31.48 hrs by agarose gel electrophoresis; assay type: nucleic-acid assay
Nucleic Acid [10] = test: Binding affinity to Escherichia coli pUC19 DNA assessed as form 2 DNA level at 0.320 mM after 25.35 hrs by agarose gel electrophoresis; assay type: nucleic-acid assay
Nucleic Acid [11] = test: Binding affinity to Escherichia coli pUC19 DNA assessed as form 2 DNA level at 0.349 mM after 23.02 hrs by agarose gel electrophoresis; assay type: nucleic-acid assay
Nucleic Acid [12] = test: Binding affinity to Escherichia coli pUC19 DNA assessed as form 1 DNA level at 0.262 mM after 28.18 hrs by agarose gel electrophoresis; assay type: nucleic-acid assay
Nucleic Acid [13] = test: Binding affinity to Escherichia coli pUC19 DNA assessed as form 2 DNA level at 0.320 mM after 27.33 hrs by agarose gel electrophoresis; assay type: nucleic-acid assay
Nucleic Acid [14] = test: Binding affinity to Escherichia coli pUC19 DNA assessed as form 2 DNA level at 0.463 mM by agarose gel electrophoresis; assay type: nucleic-acid assay
Nucleic Acid [15] = test: Binding affinity to Escherichia coli pUC19 DNA assessed as form 1 DNA level at 0.349 mM after 11.33 hrs by agarose gel electrophoresis; assay type: nucleic-acid assay
Nucleic Acid [16] = test: Binding affinity to Escherichia coli pUC19 DNA assessed as form 2 DNA level at 0.175 mM by agarose gel electrophoresis; assay type: nucleic-acid assay
Nucleic Acid [17] = test: Binding affinity to Escherichia coli pUC19 DNA assessed as form 2 DNA level at 0.175 mM after 29.33 hrs by agarose gel electrophoresis; assay type: nucleic-acid assay
Nucleic Acid [18] = test: Binding affinity to Escherichia coli pUC19 DNA assessed as form 1 DNA level at 0.463 mM after 9.07 hrs by agarose gel electrophoresis; assay type: nucleic-acid assay
Nucleic Acid [19] = test: Binding affinity to Escherichia coli pUC19 DNA assessed as form 2 DNA level at 0.463 mM after 13.07 hrs by agarose gel electrophoresis; assay type: nucleic-acid assay
Nucleic Acid [20] = test: Binding affinity to Escherichia coli pUC19 DNA assessed as form 1 DNA level at 0.130 mM by agarose gel electrophoresis; assay type: nucleic-acid assay
Nucleic Acid [21] = test: Binding affinity to Escherichia coli pUC19 DNA assessed as form 2 DNA level at 0.349 mM by agarose gel electrophoresis; assay type: nucleic-acid assay
Nucleic Acid [22] = test: Binding affinity to Escherichia coli pUC19 DNA assessed as form 2 DNA level at 0.698 mM after 3.72 hrs by agarose gel electrophoresis; assay type: nucleic-acid assay
Nucleic Acid [23] = test: Binding affinity to Escherichia coli pUC19 DNA assessed as form 2 DNA level at 0.349 mM after 26.15 hrs by agarose gel electrophoresis; assay type: nucleic-acid assay
Nucleic Acid [24] = test: Binding affinity to Escherichia coli pUC19 DNA assessed as form 1 DNA level at 0.320 mM after 4.95 hrs by agarose gel electrophoresis; assay type: nucleic-acid assay
Nucleic Acid [25] = test: Binding affinity to supercoiled Escherichia coli pUC19 DNA assessed as formation of nicked circular DNA at 1.10 mM at pH 6.0 for 24 hrs in presence of sodium azide by agarose gel electrophoresis; assay type: nucleic-acid assay
Nucleic Acid [26] = test: Binding affinity to Escherichia coli pUC19 DNA assessed as form 2 DNA level at 0.130 mM after 23.52 hrs by agarose gel electrophoresis; assay type: nucleic-acid assay
Nucleic Acid [27] = test: Binding affinity to Escherichia coli pUC19 DNA assessed as form 1 DNA level at 0.320 mM by agarose gel electrophoresis; assay type: nucleic-acid assay
Nucleic Acid [28] = test: Binding affinity to Escherichia coli pUC19 DNA assessed as form 2 DNA level at 0.463 mM after 4.95 hrs by agarose gel electrophoresis; assay type: nucleic-acid assay
Nucleic Acid [29] = test: Binding affinity to Escherichia coli pUC19 DNA assessed as form 2 DNA level at 0.262 mM after 25.02 hrs by agarose gel electrophoresis; assay type: nucleic-acid assay
Nucleic Acid [30] = test: Binding affinity to Escherichia coli pUC19 DNA assessed as form 2 DNA level at 0.698 mM after 8.45 hrs by agarose gel electrophoresis; assay type: nucleic-acid assay
Nucleic Acid [31] = test: Binding affinity to Escherichia coli pUC19 DNA assessed as form 2 DNA level at 0.463 mM after 27.33 hrs by agarose gel electrophoresis; assay type: nucleic-acid assay
Nucleic Acid [32] = test: Binding affinity to Escherichia coli pUC19 DNA assessed as form 1 DNA level at 0.130 mM after 5.42 hrs by agarose gel electrophoresis; assay type: nucleic-acid assay
Nucleic Acid [33] = test: Binding affinity to Escherichia coli pUC19 DNA assessed as form 2 DNA level at 0.262 mM after 27.07 hrs by agarose gel electrophoresis; assay type: nucleic-acid assay
Nucleic Acid [34] = test: Binding affinity to Escherichia coli pUC19 DNA assessed as form 1 DNA level at 0.262 mM after 24.08 hrs by agarose gel electrophoresis; assay type: nucleic-acid assay
HeLa [35] = test: Growth inhibition of human HeLa cells at 100 uM after 72 hrs by MTT assay; assay type: functional; set-up: scale not given: the % may be the effect or the level left
Nucleic Acid [36] = test: Binding affinity to Escherichia coli pUC19 DNA assessed as form 1 DNA level at 0.175 mM by agarose gel electrophoresis; assay type: nucleic-acid assay
Nucleic Acid [37] = test: Binding affinity to Escherichia coli pUC19 DNA assessed as form 2 DNA level at 0.130 mM after 14 hrs by agarose gel electrophoresis; assay type: nucleic-acid assay
Nucleic Acid [38] = test: Binding affinity to Escherichia coli pUC19 DNA assessed as form 1 DNA level at 0.698 mM after 8.45 hrs by agarose gel electrophoresis; assay type: nucleic-acid assay
Nucleic Acid [39] = test: Binding affinity to Escherichia coli pUC19 DNA assessed as form 2 DNA level at 0.463 mM after 29.33 hrs by agarose gel electrophoresis; assay type: nucleic-acid assay
Nucleic Acid [40] = test: Binding affinity to supercoiled Escherichia coli pUC19 DNA assessed as formation of nicked circular DNA at 1.10 mM at pH 6.0 for 24 hrs in presence of potassium iodide by agarose gel electrophoresis; assay type: nucleic-acid assay

Activity (Nucleic Acid [1]): 48.9%
Activity (Nucleic Acid [2]): Active
Activity (Nucleic Acid [3]): 64%
Activity (Nucleic Acid [4]): 6.09%
Activity (Nucleic Acid [5]): 14.9%
Activity (Nucleic Acid [6]): inactive
Activity (Nucleic Acid [7]): 34.4%
Activity (Nucleic Acid [9]): 26%
Activity (Nucleic Acid [10]): 69.8%
Activity (Nucleic Acid [11]): 27.7%
Activity (Nucleic Acid [12]): 84.1%
Activity (Nucleic Acid [13]): 67.8%
Activity (Nucleic Acid [14]): 3.75%
Activity (Nucleic Acid [15]): 90.9%
Activity (Nucleic Acid [16]): 2.93%
Activity (Nucleic Acid [17]): 23.7%
Activity (Nucleic Acid [18]): 83.3%
Activity (Nucleic Acid [19]): 22.5%
Activity (Nucleic Acid [20]): 88.6%
Activity (Nucleic Acid [21]): 2.46%
Activity (Nucleic Acid [22]): 5.08%
Activity (Nucleic Acid [23]): 31.5%
Activity (Nucleic Acid [24]): 94%
Activity (Nucleic Acid [25]): inactive
Activity (Nucleic Acid [26]): 26%
Activity (Nucleic Acid [27]): 98.2%
Activity (Nucleic Acid [28]): 7.36%
Activity (Nucleic Acid [29]): 11.9%
Activity (Nucleic Acid [30]): 15.2%
Activity (Nucleic Acid [31]): 40.6%
Activity (Nucleic Acid [32]): 85%
Activity (Nucleic Acid [33]): 15.3%
Activity (Nucleic Acid [34]): 89.5%
Activity (Nucleic Acid [36]): 97.1%
Activity (Nucleic Acid [37]): 24.4%
Activity (Nucleic Acid [38]): 84.8%
Activity (Nucleic Acid [39]): 42.2%
Activity (Nucleic Acid [40]): inactive
SMILES: Cl.Cl.NNC1=NCC(O)CN1 (stereo not given)
Activity (HeLa [8]): 0%
Activity (HeLa [35]): 0%
